Measurements published in US10375962B2, “Heterocycle derivatives as pesticides” (BAYER CROPSCIENCE AKTIENGESELLSCHAFT, priority 2016, dated 2019).
Blank lines part the entries; values can stand above or below the molecule they belong to.

Assays:
[1] = log P by HPLC on a reversed-phase column (C 18), EEC Directive 79/831 Annex V.A8; type: physicochemical
Source text: Called log P (HCOOH) in the table.
Called log P (neutral) in the table.

[2] = test system: green peach aphid (Myzus persicae); test: Myzus persicae - spray test (Chinese cabbage leaf discs); type: in vivo; conditions: after 5 days
Method: Solvent: 78 parts by weight of acetone • • 1.5 parts by weight of dimethylformamide Emulsifier: alkylaryl polyglycol ether
(§1) To produce a suitable active compound formulation, 1 part by weight of active compound is dissolved with the stated parts by weight of solvent and made up with water containing an emulsifier concentration of 1000 ppm until the desired concentration is attained. To produce further test concentrations, the formulation is diluted with emulsifier-containing water.
Discs of Chinese cabbage leaves (Brassica pekinensis) infested by all stages of the green peach aphid (Myzus persicae) are sprayed with an active compound formulation of the desired concentration.
After 5 days, the efficacy in % is determined. 100% means that all the aphids have been killed and 0% means that none of the aphids have been killed.

[3] = test system: larvae of the mustard beetle (Phaedon cochleariae); test: Phaedon cochleariae - spray test; type: in vivo; conditions: after 7 days
Method: Solvent: 78.0 parts by weight of acetone • • 1.5 parts by weight of dimethylformamide
Emulsifier: alkylaryl polyglycol ether
as §1
Discs of Chinese cabbage leaves (Brassica pekinensis) are sprayed with an active compound formulation of the desired concentration and, after drying, populated with larvae of the mustard beetle (Phaedon cochleariae).
After 7 days, the efficacy in % is determined. 100% means that all the beetle larvae have been killed and 0% means that none of the beetle larvae have been killed.

[4] = test system: caterpillars of the armyworm (Spodoptera frugiperda); test: Spodoptera frugiperda - spray test; type: in vivo; conditions: maize leaf discs, after 7 days
Method: Solvent: 78.0 parts by weight of acetone • • 1.5 parts by weight of dimethylformamide Emulsifier: alkylaryl polyglycol ether […] To produce further test concentrations, the formulation is diluted with emulsifier-containing water. Leaf discs of maize (Zea mays) are sprayed with an active compound preparation of the desired concentration and, after drying, populated with caterpillars of the armyworm (Spodoptera frugiperda).

[5] = test system: L1 larvae of the Australian sheep blowfly (Lucilia cuprina); test: Lucilia cuprina test; type: in vivo; conditions: application rate 100 ppm; after 2 days
Method: Solvent: dimethyl sulphoxide
To produce a suitable active compound formulation, 10 mg of active compound are mixed with 0.5 ml of dimethyl sulphoxide, and the concentrate is diluted with water to the desired concentration.
About 20 L1 larvae of the Australian sheep blowfly (Lucilia cuprina) are transferred into a test vessel containing minced horsemeat and the active compound formulation of the desired concentration.
After 2 days, the kill in % is determined. 100% means that all the larvae have been killed; 0% means that no larvae have been killed.

[6] = acidic range, pH 2.7, 0.1% aqueous formic acid/acetonitrile, 55° C.
[7] = neutral range, pH 7.8, 0.001 molar aqueous ammonium hydrogencarbonate/acetonitrile, 55° C.

Structure (SMILES): CCS(=O)(=O)c1ccc(-n2cnc3ccc(OC)cc32)nc1-c1nc2cc(C(F)(F)F)ncc2n1C [Example I-30]
LOGP_HCOOH (log P (HCOOH)) ([1]; pH 2.7): 2.69 | LOGP_NEUTRAL (log P (neutral)) ([1]; pH 7.8): 2.67

Structure (SMILES): CCS(=O)(=O)c1ccc(-n2cc3c(Cl)cc(C(F)(F)F)cn3c2=O)nc1-c1nc2cc(C(F)(F)F)ncc2n1C [Example I-12]
LOGP_HCOOH (log P (HCOOH)) ([1]; pH 2.7): 4.27 | LOGP_NEUTRAL (log P (neutral)) ([1]; pH 7.8): 4.18 | efficacy ([2]; application rate 100 g/ha): 90% | efficacy ([2]; application rate 500 g/ha): 90% | efficacy ([3]; application rate 100 g/ha): 100% | efficacy ([3]; application rate 500 g/ha): 100% | efficacy ([4]; application rate 100 g/ha): 100% | efficacy ([4]; application rate 500 g/ha): 100%

Structure (SMILES): CCS(=O)(=O)c1ccc(-n2nnc3ccc(Cl)cc32)nc1-c1nc2cc(C(F)(F)F)ncc2n1C [Example I-49]
LOGP_HCOOH (log P (HCOOH)) [1, 6]: 3.74 | LOGP_NEUTRAL (log P (neutral)) [1, 7]: 3.74 | efficacy ([3]; application rate 100 g/ha): 100% | efficacy ([4]; application rate 100 g/ha): 100%

Structure (SMILES): CCS(=O)(=O)c1ccc(-c2cc3ccccc3n2C)nc1-c1nc2cc(C(F)(F)F)ncc2n1C [Example I-4]
LOGP_HCOOH (log P (HCOOH)) ([1]; pH 2.7): 3.90 | LOGP_NEUTRAL (log P (neutral)) ([1]; pH 7.8): 3.83 | efficacy (kill) [5]: 90%

Structure (SMILES): CCS(=O)(=O)c1ccc(-n2ccc3ccccc32)nc1-c1nc2cc(C(F)(F)F)ncc2n1C [Example I-26]
LOGP_HCOOH (log P (HCOOH)) [1, 6]: 3.72 | LOGP_NEUTRAL (log P (neutral)) [1, 7]: 3.65

Structure (SMILES): CCS(=O)(=O)c1ccc(-n2ncc3cc(Cl)ccc32)nc1-c1nc2cc(C(F)(F)F)ncc2n1C [Example I-9]
LOGP_HCOOH (log P (HCOOH)) ([1]; pH 2.7): 4.03 | LOGP_NEUTRAL (log P (neutral)) ([1]; pH 7.8): 4.03

Structure (SMILES): CCS(=O)(=O)c1ccc(-n2ccc3ccc(Cl)cc32)nc1-c1nc2cc(C(F)(F)F)ncc2n1C [Example I-23]
LOGP_HCOOH (log P (HCOOH)) ([1]; pH 2.7): 4.04 | LOGP_NEUTRAL (log P (neutral)) ([1]; pH 7.8): 4.04 | efficacy ([2]; application rate 500 g/ha): 90%

Structure (SMILES): CCS(=O)(=O)c1ccc(-n2nnc3cc(Cl)ccc32)nc1-c1nc2cc(C(F)(F)F)ncc2n1C [Example I-50]
LOGP_HCOOH (log P (HCOOH)) [1, 6]: 3.72 | LOGP_NEUTRAL (log P (neutral)) [1, 7]: 3.77 | efficacy ([3]; application rate 100 g/ha): 100% | efficacy ([4]; application rate 100 g/ha): 100%

Structure (SMILES): CCS(=O)(=O)c1ccc(-n2ncc3cccc(Cl)c32)nc1-c1nc2cc(C(F)(F)F)ncc2n1C [Example I-8]
LOGP_HCOOH (log P (HCOOH)) [1, 6]: 3.44 | LOGP_NEUTRAL (log P (neutral)) [1, 7]: 3.34

Second part, led by results:

LOGP_HCOOH (log P (HCOOH)) ([1]; pH 2.7): 2.97
Structure (SMILES): CCS(=O)(=O)c1ccc(-n2c(=O)[nH]c3ccc(Cl)cc32)nc1-c1nc2cc(C(F)(F)F)ncc2n1C [Example I-48]

LOGP_HCOOH (log P (HCOOH)) ([1]; pH 2.7): 2.42 | LOGP_NEUTRAL (log P (neutral)) ([1]; pH 7.8): 2.38
Structure (SMILES): CCS(=O)(=O)c1ccc(-n2nc3ccc(Cl)nn3c2=O)nc1-c1nc2cc(C(F)(F)F)ncc2n1C [Example I-42]
efficacy ([3]; application rate 100 g/ha): 100%

LOGP_HCOOH (log P (HCOOH)) ([1]; pH 2.7): 3.10 | LOGP_NEUTRAL (log P (neutral)) ([1]; pH 7.8): 3.06
Structure (SMILES): CCS(=O)(=O)c1ccc(-n2c(=O)n(C)c3ccccc32)nc1-c1nc2cc(C(F)(F)F)ncc2n1C [Example I-44]

LOGP_HCOOH (log P (HCOOH)) ([1]; pH 2.7): 3.29 | LOGP_NEUTRAL (log P (neutral)) ([1]; pH 7.8): 3.32
Structure (SMILES): CCS(=O)(=O)c1ccc(N2Cc3cc(OC)ccc3C2=O)nc1-c1nc2cc(C(F)(F)F)ncc2n1C [Example I-38]
efficacy ([4]; application rate 100 g/ha): 100%

LOGP_HCOOH (log P (HCOOH)) ([1]; pH 2.7): 2.59 | LOGP_NEUTRAL (log P (neutral)) ([1]; pH 7.8): 2.62
Structure (SMILES): CCS(=O)(=O)c1ccc(-n2c(=O)[nH]c3ccccc32)nc1-c1nc2cc(C(F)(F)F)ncc2n1C [Example I-45]

LOGP_HCOOH (log P (HCOOH)) ([1]; pH 2.7): 3.05
Structure (SMILES): CCS(=O)(=O)c1ccc(-n2c(=O)[nH]c3cc(Cl)ccc32)nc1-c1nc2cc(C(F)(F)F)ncc2n1C [Example I-47]
